Data set [1] deals with cell–cell fusion reaction between target cells expressing CD4/CCR5 and effector cells expressing the envelope protein of HIV-1. Type of data set: cell-based.
For data set [2] the following is noted: pH 6.8; cited from earlier work.
The conditions of data set [3]: rat, 10 mg/kg, po.
For data set [4], the target named is T1, human CCR5 (Homo sapiens, UniProt P51681). The settings on record: (3R,1′R)-configuration versus other stereoisomers; cited from earlier work.
For data set [5], the target named is CCR5/hRANTES (Cavia porcellus, UniProt A0A286Y1F6). The following applies: read-out: CCR5/hRANTES Ca assay IC50; Guinea pig.
CCR5/hRANTES, sequence (A0A286Y1F6 1-353): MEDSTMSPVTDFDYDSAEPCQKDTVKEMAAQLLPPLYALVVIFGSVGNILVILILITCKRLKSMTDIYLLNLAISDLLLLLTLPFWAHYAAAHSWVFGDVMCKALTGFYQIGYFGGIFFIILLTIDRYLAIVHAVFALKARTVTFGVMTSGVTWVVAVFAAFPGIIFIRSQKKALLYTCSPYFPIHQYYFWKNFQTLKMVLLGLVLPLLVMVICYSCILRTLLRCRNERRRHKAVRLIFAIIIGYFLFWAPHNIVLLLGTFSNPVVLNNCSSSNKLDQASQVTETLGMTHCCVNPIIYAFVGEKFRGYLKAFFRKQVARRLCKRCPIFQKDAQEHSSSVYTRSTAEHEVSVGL
Data set [6] is described as follows: AMES test.
For data set [7] the following is noted: up to the dosage of 100 mg/kg, po.
The subject of data set [8] is broad panel of receptors and transporters including the other chemokines. As to the kind of experiment: Broad panel of receptors and transporters including the other chemokines.
Data set [9] is described as follows: in vivo. The following applies: rat, po, 10 mg/kg.
The target in data set [10] is T1, human CCR5. Type of data set: cell-based.
Data set [11] deals with HIV-1Ba-L (R5). The following applies: inhibition of HIV p24 antigen expression in PBMC, mean ± SD, triplicate.
Data set [12] has as its system HIV-1MM (R5MDR). The settings on record: read-out: Anti-HIV-1 activity HIV-1MM (R5MDR) IC50 ± SD; inhibition of HIV p24 antigen expression in PBMC, mean ± SD, triplicate.

Counter-ions that a name gives are not always drawn. Like-named read-outs stand apart in the source and are kept apart here. Bounds are passed on as bounds.

T1 sequence (P51681 whole entry): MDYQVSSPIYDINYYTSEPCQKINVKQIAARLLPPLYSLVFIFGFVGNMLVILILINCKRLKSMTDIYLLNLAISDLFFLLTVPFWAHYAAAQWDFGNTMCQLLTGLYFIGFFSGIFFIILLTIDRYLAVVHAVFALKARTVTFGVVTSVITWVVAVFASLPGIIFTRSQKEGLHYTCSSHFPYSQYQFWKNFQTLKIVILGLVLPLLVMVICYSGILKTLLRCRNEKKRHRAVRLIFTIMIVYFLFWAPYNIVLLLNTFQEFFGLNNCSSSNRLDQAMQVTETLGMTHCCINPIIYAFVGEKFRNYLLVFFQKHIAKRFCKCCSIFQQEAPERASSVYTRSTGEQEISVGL

As for `CCCCN1C(=O)[C@@H](C(O)C2CCC(O)CC2)NC(=O)C12CCN(Cc1ccc(Oc3ccc(C(=O)O)cc3)cc1)CC2` (stereo in doubt) [Compound 20b, 4-[4-({(3R)-1-Butyl-3-[(R)-hydroxy(4-hydroxycyclohexyl)methyl]-2,5-dioxo-1,4,9-triazaspiro[5.5]undec-9-yl}methyl)phenoxy]benzoic acid hydrochloride], the IC50 in [1] (read-out: Fusion assay IC50) was 129 nM.
In the case of `CCCCN1C(=O)C(C(C)C)NC(=O)C12CCN(Cc1ccc(Oc3ccccc3)cc1)CC2.Cl` (stereo not drawn) [Compound 1], the aqueous solubility result in data set [2] was “less than 0.2 μg/ml”. The BA in data set [3] was 1.3%.
Take `CCCCN1C(=O)C(CC2CCCCC2)NC(=O)C12CCN(Cc1ccc(Oc3ccc(C(=O)NC)cc3)cc1)CC2.Cl` (stereo not drawn) [Compound 2]: in data set [3], the BA turned out to be 1.9%.
`CCCCN1C(=O)[C@@H]([C@H](O)C(C)C)NC(=O)C12CCN(Cc1ccc(Oc3ccccc3)cc1)CC2.Cl` [Compound 3]: the “fold more potency than the other stereoisomers in the Ca assay” value in [4] is recorded as 4.5–12 fold.
In data set [3], `CCCCN1C(=O)[C@H](CC2CCCCC2)NC(=O)C12CCN(Cc1ccc(Oc3ccc(C(=O)O)cc3)cc1)CC2.Cl` [Compound 5] gave a BA of 34%.
On to `CCCCN1C(=O)[C@@H]([C@H](O)C2CCCCC2)NC(=O)C12CCN(Cc1ccc(Oc3ccc(C(=O)O)cc3)cc1)CC2.Cl` [Compound 6a, 4-[4-({(3R)-1-Butyl-3-[(R)-cyclohexyl(hydroxy)methyl]-2,5-dioxo-1,4,9-triazaspiro[5.5]undec-9-yl}methyl)phenoxy]benzoic acid hydrochloride], for which, in [5], the IC50 is over 30000 nM. Moreover, the AMES test result in [6] is “did not show any significant safety problem”. In [3], this molecule yielded a BA of 23%. Further, in [7], the “14-day rat safety study result” value was “did not show any significant safety problem”. Moreover, the “activity against a broad panel of receptors and transporters” value in data set [8] is given as “no significant activity”.
`CCCCN1C(=O)[C@@H]([C@H](O)C2CCCCC2)NC(=O)C12CCN(Cc1ccc(Oc3ccc(O)cc3)cc1)CC2` [Compound 8, (3R)-1-Butyl-3-[(R)-cyclohexyl(hydroxy)methyl]-9-[4-(4-hydroxyphenoxy)benzyl]-1,4,9-triazaspiro[5.5]undecane-2,5-dione hydrochloride]: in data set [1] (read-out: Fusion assay IC50), the IC50 came to 2.8 nM.
What is called AUC is concentration integrated over time. Lower therefore signals low exposure. A word on the Cmax: it is the maximum level reached in the sampled fluid or tissue. `CCCCN1C(=O)[C@@H]([C@H](O)C2CCCCC2)NC(=O)C12CCN(Cc1ccc(Oc3ccc(C(=O)NC)cc3)cc1)CC2.Cl` [Compound 10, 4-[4-({(3R)-1-Butyl-3-[(R)-cyclohexyl(hydroxy)methyl]-2,5-dioxo-1,4,9-triazaspiro[5.5]undec-9-yl}methyl)phenoxy]-N-methylbenzamide hydrochloride]: in [9], the AUC was determined as 1300 ng·h/mL and the Cmax turned out to be 333 ng/mL. Besides, the BA in [3] was found to be 10%.
The matching figures for `CCCCN1C(=O)[C@@H]([C@H](O)C2CCCCC2)NC(=O)C12CCN(Cc1ccc(Oc3ccc(NS(C)(=O)=O)cc3)cc1)CC2.Cl` [Compound 13, N-{4-[4-({(3R)-1-Butyl-3-[(R)-cyclohexyl (hydroxy)methyl]-2,5-dioxo-1,4,9-triazaspiro[5.5]undec-9-yl}methyl)phenoxy]phenyl}methanesulfonamide hydrochloride]: 242 ng·h/mL, 50 ng/mL and 5%.
In data set [9], `CCCCN1C(=O)[C@@H]([C@H](O)C(C)C)NC(=O)C12CCN(Cc1ccc(Oc3ccc(C(=O)O)cc3)cc1)CC2.Cl` [Compound 14, 4-[4-({(3R)-1-Butyl-3-[(1R)-1-hydroxy-2-methylpropyl]-2,5-dioxo-1,4,9-triazaspiro[5.5]undec-9-yl}methyl)phenoxy]benzoic acid hydrochloride] had an AUC of 150 ng·h/mL. In data set [3], this molecule showed a BA of 5.9%.
`CCCCN1C(=O)[C@@H]([C@H](O)C2CCOCC2)NC(=O)C12CCN(Cc1ccc(Oc3ccc(C(=O)O)cc3)cc1)CC2` [Compound 19, 4-[4-({(3R)-1-Butyl-3-[(R)-hydroxy(tetrahydro-2H-pyran-4-yl)methyl]-2,5-dioxo-1,4,9-triazaspiro[5.5]undec-9-yl}methyl)phenoxy]benzoic acid hydrochloride]: the IC50 in [1] (read-out: Fusion assay IC50) stood at 302 nM.
Still for that read-out and setting: the same measure for `CCCCN1C(=O)[C@@H]([C@H](O)C2CCC(O)CC2)NC(=O)C12CCN(Cc1ccc(Oc3ccc(C(=O)O)cc3)cc1)CC2` (stereo partly drawn) [Compound 20a, 4-[4-({(3R)-1-Butyl-3-[(R)-hydroxy(4-hydroxycyclohexyl)methyl]-2,5-dioxo-1,4,9-triazaspiro[5.5]undec-9-yl}methyl)phenoxy]benzoic acid hydrochloride]: 537 nM.
Consider `CNC(=O)c1ccc(Oc2ccc(CN3CCC4(CC3)C(=O)N[C@H]([C@H](O)C3CCCCC3)C(=O)N4C)cc2)cc1` [Compound 22, 4-[4-({(3R)-3-[(R)-Cyclohexyl(hydroxy)methyl]-1-methyl-2,5-dioxo-1,4,9-triazaspiro[5.5]undec-9-yl}methyl)phenoxy]-N-methylbenzamide hydrochloride], for which, in [1] (read-out: Fusion assay), the IC50 turned out to be 1860 nM.
Take `CCCN1C(=O)[C@@H]([C@H](O)C2CCCCC2)NC(=O)C12CCN(Cc1ccc(Oc3ccc(C(=O)O)cc3)cc1)CC2` [Compound 25, 4-[4-({(3R)-3-[(R)-Cyclohexyl(hydroxy)methyl]-2,5-dioxo-1-propyl-1,4,9-triazaspiro[5.5]undec-9-yl}methyl)phenoxy]benzoic acid hydrochloride]: the IC50 in [1] (read-out: Fusion assay) amounted to 112 nM.
Turning to `CCCN1C(=O)[C@@H]([C@H](O)C2CCCCC2)NC(=O)C12CCN(Cc1ccc(Oc3ccc(C(=O)NC)cc3)cc1)CC2.Cl` [Compound 26, 4-[4-({(3R)-3-[(R)-Cyclohexyl(hydroxy)methyl]-2,5-dioxo-1-propyl-1,4,9-triazaspiro[5.5]undec-9-yl}methyl)phenoxy]-N-methylbenzamide hydrochloride], in [9], the AUC turned out to be 513 ng·h/mL and the Cmax came to 133 ng/mL. The molecule also showed a BA in data set [3] of 11.2%.
Turning to `CNC(=O)c1ccc(Oc2ccc(CN3CCC4(CC3)C(=O)N[C@H]([C@H](O)C3CCCCC3)C(=O)N4CCC(C)O)cc2)cc1` (stereo partly drawn) [Compound 30, 4-(4-{[(3R)-3-[(R)-Cyclohexyl(hydroxy)methyl]-1-(3-hydroxybutyl)-2,5-dioxo-1,4,9-triazaspiro[5.5]undec-9-yl]methyl}phenoxy)-N-methylbenzamide hydrochloride], the IC50 in data set [1] (read-out: Fusion assay) was about 10000 nM.
`CNC(=O)c1ccc(Oc2ccc(CN3CCC4(CC3)C(=O)N[C@H]([C@H](O)C3CCCCC3)C(=O)N4CCN)cc2)cc1.Cl.Cl` [Compound 32, 4-[4-({(3R)-1-(2-Aminoethyl)-3-[(R)-cyclohexyl(hydroxy)methyl]-2,5-dioxo-1,4,9-triazaspiro[5.5]undec-9-yl}methyl)phenoxy]-N-methylbenzamide dihydrochloride]: in [10], the “fold less potent antagonist activity relative to 10” value is listed as over 10 fold.
`CNC(=O)c1ccc(Oc2ccc(CN3CCC4(CC3)C(=O)N[C@H]([C@H](O)C3CCCCC3)C(=O)N4CCN(C)C)cc2)cc1.Cl.Cl` [Compound 33, 4-[4-({(3R)-3-[(R)-Cyclohexyl(hydroxy)methyl]-1-[2-(dimethylamino)ethyl]-2,5-dioxo-1,4,9-triazaspiro[5.5]undec-9-yl}methyl)phenoxy]-N-methylbenzamide dihydrochloride]: the “fold less potent antagonist activity relative to 10” value in data set [10] is over 10 fold.
The IC90 is the concentration at which the effect reaches the 90% level. On to SCH-351125, for which the figures for the IC50 in data set [11] (read-out: Anti-HIV-1 activity HIV-1Ba-L (R5) IC50 ± SD) and in [12] were 4 ± 2 nM and 3 ± 0.5 nM, respectively. In addition, the IC90 in data set [11] (read-out: Anti-HIV-1 activity HIV-1Ba-L (R5) IC90 ± SD) worked out at 79 ± 52 nM.

The values above are taken from paper PMC7604827 (Bioorganic & medicinal chemistry, 2011).
